What was measured:
[1] = system: H3K27me3 mark in HeLa cells; test: H3K27me3 Alpha Hela Assay (AlphaLISA); format: cell-based; conditions: Homo sapiens, 72 hrs, read-out: H3K27me3_Alpha_HeLa_ (EC50)
Protocol: H3K27me3 Alpha Hela Assay (AlphaLISA).
Ten different doses of each test compound (in a series of 3-fold dilutions) were plated in duplicate 384-well tissue culture treated plates (Catalog #781080; Greiner Bio One; Monroe, N.C.). Hela cells grown in culture were trypsinized and counted using a Countess® cell counter (Catalog #C10281; Life Technologies, Grand Island, N.Y.). Cell were diluted to 67,000 cells per mL in 10% DMEM (Catalog #10569-010 Life Technologies. Grand Island, N.Y.) and 15 μL (1,000 cells) were plated into each well using the Biotek MicroFlo™ Select Dispenser (BioTek Instruments. Inc. Vermont, USA),) of the 384-well plate. Plates were incubated at 37° C./5% CO2 for 72 hrs. One of the duplicate plates was processed for HeLa assay and the other for viability.
To the plate processed for AlphaLISA was added 5 μL per well Cell-Histone Lysis buffer (1×) (Catalog #AL009F1 Perkin Elmer; Waltham, Mass.) and the plate was incubated at RT for 30 minutes on a plate shaker with low speed (Model#4625-Q Thermo Scientific; Waltham, Mass.). Then, 10 µL per well Histone Extraction buffer (catalog #AL009F2: Perkin Elmer; Waltham, Mass.) was added and the plate further incubated at RT for 20 min on plate shaker with low speed. To each well was then added 10 μL per well of a 5× mix of anti-K27me3 acceptor beads plus Biotinylated anti-Histone H3 (C-ter) Antibody (diluted to 3 nM final) (Catalog #AL118 Perkin Elmer; Waltham, Mass.). Dilution of the acceptor beads and then anti-Histone H3 was with 1× Histone Detection buffer (Catalog #AL009F3 Perkin Elmer; Waltham, Mass.) which was produced diluted from the 10× stock provided. The plate was sealed with an aluminum plate sealer and incubated at 23° C. for 60 min. We then added 10 μL 5× solution of Streptavidin Donor beads (Catalog #6760002 Perkin Elmer; Waltham, Mass.) (20 μg/mL final in 1× Histone Detection Buffer), sealed the plate with Aluminum plate sealer and incubated at 23° C. for 30 min. The plates were then read using an EnVision-Alpha Reader (model #2104 Perkin Elmer: Waltham, Mass.).
Data from both assays was analyzed using Assay Assistant (Constellation Pharmaceuticals In-house product) and Activity Base (IDBS Ltd. Surrey, UK) template. Data files were imported to Assay Assistant and assay conditions were specified. A unique Analysis ID was created and the data files exported to Activity Base. An analysis template was created on Activity Base to measure dose-dependent inhibition of H3K27me3 mark and cell viability respectively. Readout of DMSO wells were used to normalize the data. Resulting curves were fitted using Activity base software Model 205 (IDBS Ltd, Surrey, UK). The data was checked for quality, validated and integrated in excel format using SARview (IDBS Ltd, Surrey, UK).

EZH2 (rPRC2) = EZH2 (rPRC2) (Homo sapiens, UniProt Q15910); test: EZH2 assay: rPRC2, biotinylated oligonucleosomes, 3H SAM methyl transfer (FlashPlate scintillation); format: biochemical; conditions: EZH2 IC50, wild-type EZH2 (rPRC2), biotinylated oligonucleosome substrate
Y641N EZH2 = Y641N EZH2 (Homo sapiens, UniProt Q15910, Y641N); test: Y641N EZH2 assay: as EZH2 assay, with reconstituted H3K27Me2 oligonucleosomes as substrate; format: biochemical; conditions: Y641N EZH2 IC50, Y641N mutant EZH2, H3K27Me2 oligonucleosome substrate
[2] = system: H3K27me3 mark in HeLa cells; test: H3K27me3 MSD Hela Assay; format: cell-based; conditions: Homo sapiens, HeLa, 96 h, read-out: H3K27me3_MSD_HeLa_ (EC50)
Procedure, shortened: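 HeLa cells treated with compound at various concentrations for 96 h at 37 °C, then lysed with high-salt extraction. H3K27me3 measured by MSD electrochemiluminescence immunoassay on total-H3 capture plates. Dose-dependent inhibition normalised to DMSO wells and fitted to curves.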

Sequence of Y641N EZH2 (Q15910 whole entry Y641N): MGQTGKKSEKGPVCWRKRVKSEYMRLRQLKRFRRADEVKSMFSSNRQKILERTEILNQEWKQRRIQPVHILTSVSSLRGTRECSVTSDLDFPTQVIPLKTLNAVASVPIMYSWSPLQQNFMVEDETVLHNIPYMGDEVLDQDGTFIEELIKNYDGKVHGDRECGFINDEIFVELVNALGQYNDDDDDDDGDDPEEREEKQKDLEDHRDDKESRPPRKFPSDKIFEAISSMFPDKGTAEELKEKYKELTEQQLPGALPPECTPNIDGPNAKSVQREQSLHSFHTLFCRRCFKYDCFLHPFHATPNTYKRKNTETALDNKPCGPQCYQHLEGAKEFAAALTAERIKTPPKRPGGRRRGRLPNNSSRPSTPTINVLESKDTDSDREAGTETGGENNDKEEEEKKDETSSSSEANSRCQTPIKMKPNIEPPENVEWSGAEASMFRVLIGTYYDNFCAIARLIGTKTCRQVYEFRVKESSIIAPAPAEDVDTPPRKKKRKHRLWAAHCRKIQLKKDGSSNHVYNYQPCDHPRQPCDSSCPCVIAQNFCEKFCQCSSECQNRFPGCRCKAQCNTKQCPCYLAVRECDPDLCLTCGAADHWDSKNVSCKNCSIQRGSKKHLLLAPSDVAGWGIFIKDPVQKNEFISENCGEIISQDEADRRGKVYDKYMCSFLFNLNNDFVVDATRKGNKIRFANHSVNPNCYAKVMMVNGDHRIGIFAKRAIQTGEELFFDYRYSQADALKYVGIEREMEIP
Sequence of Y641N EZH2 (O75530 whole entry partner): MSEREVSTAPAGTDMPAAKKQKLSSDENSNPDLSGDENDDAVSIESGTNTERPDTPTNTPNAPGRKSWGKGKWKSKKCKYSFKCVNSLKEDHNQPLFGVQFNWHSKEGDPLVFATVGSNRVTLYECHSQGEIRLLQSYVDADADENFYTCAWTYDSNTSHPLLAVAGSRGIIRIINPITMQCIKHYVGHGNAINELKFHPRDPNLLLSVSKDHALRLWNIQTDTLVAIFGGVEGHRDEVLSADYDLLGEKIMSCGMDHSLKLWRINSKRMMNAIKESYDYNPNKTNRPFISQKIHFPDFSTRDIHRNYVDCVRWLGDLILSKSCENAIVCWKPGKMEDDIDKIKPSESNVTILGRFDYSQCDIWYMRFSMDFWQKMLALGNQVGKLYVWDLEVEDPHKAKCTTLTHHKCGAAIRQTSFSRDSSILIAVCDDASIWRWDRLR
Sequence of Y641N EZH2 (Q15022 whole entry partner): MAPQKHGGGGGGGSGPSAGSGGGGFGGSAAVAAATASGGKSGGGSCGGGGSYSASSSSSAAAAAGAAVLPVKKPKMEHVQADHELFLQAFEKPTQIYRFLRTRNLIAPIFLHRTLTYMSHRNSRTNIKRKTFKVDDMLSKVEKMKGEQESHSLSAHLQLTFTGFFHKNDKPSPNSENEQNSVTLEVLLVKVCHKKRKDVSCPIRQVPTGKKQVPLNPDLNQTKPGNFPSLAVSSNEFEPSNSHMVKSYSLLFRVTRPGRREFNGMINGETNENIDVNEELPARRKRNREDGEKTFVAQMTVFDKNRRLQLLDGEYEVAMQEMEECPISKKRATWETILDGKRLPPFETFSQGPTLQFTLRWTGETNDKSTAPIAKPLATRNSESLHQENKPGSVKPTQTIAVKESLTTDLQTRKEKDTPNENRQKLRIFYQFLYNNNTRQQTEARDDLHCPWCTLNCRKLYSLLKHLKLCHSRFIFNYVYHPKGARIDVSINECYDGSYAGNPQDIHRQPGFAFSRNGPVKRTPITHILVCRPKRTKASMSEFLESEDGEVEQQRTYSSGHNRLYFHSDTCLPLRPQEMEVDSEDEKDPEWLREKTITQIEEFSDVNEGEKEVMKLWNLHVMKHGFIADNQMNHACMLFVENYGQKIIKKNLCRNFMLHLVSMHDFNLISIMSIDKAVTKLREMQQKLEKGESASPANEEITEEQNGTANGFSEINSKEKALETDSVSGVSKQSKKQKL
Sequence of EZH2 (rPRC2) (Q15910 whole entry): as the sequence (Q15910 whole entry Y641N) above, with N641Y counted along it
Sequence of EZH2 (rPRC2) (O75530 whole entry partner): as the sequence (O75530 whole entry partner) above
Sequence of EZH2 (rPRC2) (Q15022 whole entry partner): as the sequence (Q15022 whole entry partner) above

SMILES	EC50 [1] [nM]	IC50 (EZH2 (rPRC2)) [nM]	IC50 (Y641N EZH2) [nM]	EC50 [2] [nM]
Cc1cc(OC(F)F)c(CNC(=O)c2c(C)n(C(C)C3CCN(S(C)(=O)=O)CC3)c3ccccc23)c(=O)[nH]1 (single isomer, unassigned) [Compound 344, (R or S)-N((4-(difluoromethoxy)-6-methyl-2-oxo-1,2-dihydropyridin-3-yl)methyl)-2-methy1-1-(1-(1-(methylsulfonyl)piperidin-4-yl)ethyl)-1H-indole-3-carboxamide]	< 400			
Cc1cc(C)c(CNC(=O)c2c(C)n(C(C)C3CCN(C4COC4)CC3)c3ccccc23)c(=O)[nH]1 (single isomer, unassigned) [Compound 375, (R or S)-N-((4,6-dimethyl-2-oxo-1,2-dihydropyridin-3-yl)methyl)-2-methyl-1-(1-(1-(oxctan-3-yl)piperidin-4-yl)ethyl)-1 H-indole-3-carboxamide]	< 400			
COc1cc(C)[nH]c(=O)c1CNC(=O)c1c(C)n(C(C)C2CCN(C3COC3)CC2)c2ccccc12 (single isomer, unassigned) [Compound 341, (R or S)-N-((4-methoxy-6-methyl-2-oxo-1,2dihydropyridin-3-yl)methyl)-2-methyl-1-(1-(1-(oxctan-3-yl)piperidin-4-yl)ethyl)-1 H-indole-3-carboxamide]	< 400			
COc1cc(C)[nH]c(=O)c1CNC(=O)c1c(C)n(C(C)C2CCN(C(=O)C(C)(C)O)CC2)c2ccccc12 (single isomer, unassigned) [Compound 337, (R or S)-1-(1-(1-(2-hydroxy-2-methylpropanoyl)piperidin-4-yl)ethyl)-N-((4-methoxy-6-methyl-2-oxo-1,2-dihydropyridin-3-yl)methyl)-2-methyl-IH-indole-3-carboxamide]	< 400			
CCc1cc(C)[nH]c(=O)c1CNC(=O)c1c(C)n(C(C)C2CCN(C)CC2)c2ccccc12 (single isomer, unassigned) [Compound 366, (R or S)-N-((4-ethyl-6-methyl-2-oxo-1,2-dihydropyridin-3-yl)methyl)-2-methyl-1-(1-(1-methylpiperidin-4-yl)ethyl-1 H-indole-3-carboxamide]	400 to 2000			
COc1cc(C)[nH]c(=O)c1CNC(=O)c1c(C)n(C(C)C2CCN(CC(F)(F)F)CC2)c2ccccc12 (single isomer, unassigned) [Compound 365, (R or S)-N-((4-methoxy-6-methyl-2-oxo-1,2-dihydropyridin-3-yl)methyl)-2-methyl-1-(1-(1-(2,2,2-trifluoroethyl)piperidin-4-yl)ethyl)-1H-indole-3-carboxamide]	< 400			
COc1cc(C)[nH]c(=O)c1CNC(=O)c1c(C)n(C(C)C2CCN(S(C)(=O)=O)CC2)c2ccccc12 (single isomer, unassigned) [Compound 336, (R or S)-N-((4-methoxy-6-methyl-2-oxo-1,2-dihydropyridin-3-methyl)-2 methyl-1-(1-(1-(methylsulfonyl)piperidin-4-yl)ethyl)-1 H-indole-3-carboxamide]	< 400			
COCCN1CCC(C(C)n2c(C)c(C(=O)NCc3c(OC)cc(C)[nH]c3=O)c3ccccc32)CC1 (single isomer, unassigned) [Compound 359, (R or S)-N-((4-methoxy-6-methyl-2-oxo-1,2-dihysropyridin-3-yl)methyl)-1-(1-(1-(2-methoxyethyl)piperidin-4-yl)ethyl)-2-methyl-1 H-indole-3-carboxamide]	400 to 2000			
Cc1cc(C)c(CNC(=O)c2c(C)n(C(C)C3CCN(C)CC3)c3ccccc23)c(=O)[nH]1 (single isomer, unassigned) [Compound 367, (R or S)-N-((4,6-dimethyl-2-oxo-1,2-dihydropyridin-3-yl)methyl)-2-methyl-1-(1-(1-methylpiperidin-4-yl)ethyl)-1 H-indole-3-carboxamide]	< 400			
COc1cc(C)[nH]c(=O)c1CNC(=O)c1c(C)n(C(C)C2CCN(C(=O)C(C)C)CC2)c2ccccc12 (single isomer, unassigned) [Compound 342, (R or S)-1-(1-(1-isobulyrylpiperidin-4-yl)ethyl)-N-((4-methoxy-6-methyl-2-oxo-1,2-dihydropyridin-3-yl)methyl)-2-methyl-1H-indole-3-carboxamide]	< 400			
COc1cc(C)[nH]c(=O)c1CNC(=O)c1c(C)n(C(C)CS(C)(=O)=O)c2ccccc12 (single isomer, unassigned) [Compound 279, (R or S)-N-((4-methoxy-6-methyl-2-oxo-1,2-dihydropyridin-3-yl)methyl)-2-methyl-1-(1-(methylsulfonyl)propan-2-yl)-1H-indole-3-carboxamide]		< 100	100 to 1000	2000 to 10000
COc1cc(C(C)n2c(C)c(C(=O)NCc3c(C)cc(C)[nH]c3=O)c3cccnc32)ccn1 (racemic) [Compound 207, (±)-N-((4,6-dimethyl-2-oxo-1,2-dihydropyridin-3-yl)methyl)-1-(1-(2-methoxypyridin-4-yl)ethyl)-2-methyl-1H-pyrrolo[2,3-b]pyridine-3-carboxamide]		< 100	100 to 1000	2000 to 10000
Cc1cc(C)c(CNC(=O)c2c(C)n([C@H](C)c3ccccc3)c3nc(N4CCOCC4)ncc23)c(O)n1 [Compound 143, (R)—N-((2-hydroxy-4,6-dimethylpyridin-3-yl)methyl)-6-methyl-2-morpholino-7-(1-phenylethyl)-7H-pyrrolo[2,3-d]pyrimidine-5-carboxamide]		< 100	1000 to 10000	2000 to 10000
COc1cc(C)[nH]c(=O)c1CNC(=O)c1c(C)n(C(C)C2CCOCC2)c2ncncc12 (single isomer, unassigned) [Compound 319, (R or S)-N-((4-methoxy-6-methyl-2-oxo-1,2-dihydropyridin-3-yl)methyl)-6-methyl-7-(1-(tetrahydro-2H-pyran-4-yl)ethyl)-7H-pyrrolo[2,3-d]pyrimidine-5-carboxamide]		< 100	< 100	< 400
Cc1ccc(C(C)n2c(C)c(C(=O)NCc3c(C)cc(C)[nH]c3=O)c3ccccc32)cc1 (racemic) [Compound 172, (±)-N-((4,6-dimethyl-2-oxo-1,2-dihydropyridin-3-yl)methyl)-2-methyl-1-(1-(p-tolyl)ethyl)-1H-indole-3-carboxamide]		< 100	100 to 1000	2000 to 10000
Cc1cc(C)c(CNC(=O)c2c(C)n([C@H](C)c3ccccc3)c3nc(N)ncc23)c(O)n1 [Compound 144, (R)-2-amino-N-((2-hydroxy-4,6-dimethylpyridin-3-yl)methyl)-6-methyl-7-(1-phenylethyl)-7H-pyrrolo[2,3-d]pyrimidine-5-carboxamide]		< 100	100 to 1000	2000 to 10000
COc1cc(C)[nH]c(=O)c1CNC(=O)c1c(C)n(C(C)c2ccccc2)c2cnccc12 (single isomer, unassigned) [Compound 258, (R or S)-N-((4-methoxy-6-methyl-2-oxo-1,2-dihydropyridin-3-yl)methyl)-2-methyl-1-(1-phenylethyl)-1H-pyrrolo[2,3-c]pyridine-3-carboxamide]		< 100	< 100	400 to 2000
COc1cc(C)[nH]c(=O)c1CNC(=O)c1c(C)n(C(C)C(OC)C2CC2)c2ncccc12 (stereo not shown) [Compound 283, 1-(1-cyclopropyl-1-methoxypropan-2-yl)-N-((4-methoxy-6-methyl-2-oxo-1,2-dihydropyridin-3-yl)methyl)-2-methyl-1H-pyrrolo[2,3-b]pyridine-3-carboxamide]		< 100	100 to 1000	400 to 2000

From patent US9371331B2, “Modulators of methyl modifying enzymes, compositions and uses thereof” (Constellation Pharmaceuticals, Inc., priority 2012, dated 2016)
